According to patent publication US9814740B2, “Methods and compositions combining immunotherapy with monocyte activation” (Duke University, priority 2010, dated 2017):

Legend:
[1] = tested on: bone marrow CD11b+ monocytes; assay: TLR-induced TNF-α production by CD11b+ bone marrow cells; format: cell-based, mouse; settings: TLR agonists 25 μg/ml, 4 h, Brefeldin A
Procedure: (§1) For IL-10 detection, mouse spleen or blood mononuclear cells, BL3750 tumor cells, or human blood were resuspended (2×10^6 cells/ml) in complete medium [RPMI 1640 media (Cellgro, Herndon, Va.) containing 10% FCS (Sigma, St. Louis, Mo.). […]. 4 mM L-Glutamine (all Cellgro), and 55 μM 2-mercaptoethanol (Invitrogen, Carlsbad. CA)] with lipopolysaccharide (LPS, 10 μg/ml, Escherichia coli serotype 0111: B4, Sigma), phorbol myristate acetate (PMA, 50 ng/ml; Sigma), ionomycin (500 ng/ml; Sigma), and monensin (2 μM; eBioscience) for 5 h. B10 progenitor cells were induced to mature and acquire IL-10 competence in vitro by culturing the cells with LPS (10 μg/ml), CpG (human ODN 2006, 10 μg/ml; Invivogen, San Diego, Calif., mouse ODN 1668, 10 μg/ml; Integrated DNA Technologies, Coralville, Iowa), or poly I:C (Invivogen) for 48 h with the addition of monensin, PMA and ionomycin for the last 5 h of culture. For TNF-α detection, bone marrow cells were resuspended (2×10^6 cells/ml) in complete medium with Brefeldin A (1 μl; Biolegend) and TLR agonists (25 μg/ml) for 4 h. Before cell surface staining, Fc receptors were blocked using Fc receptor mAb (2.4G2; BD Biosciences), and dead cells were labeled using a LIVE/DEAD® Fixable Green Dead Cell Stain Kit (Invitrogen-Molecular Probes). […]

[2] = tested on: FcγRII/III; assay: FcγRII/III expression by innate effector cells after TLR agonist treatment; format: in vivo, mouse; settings: splenocytes 18 h after treatment
Procedure: FIG. 4 is a set of graphs showing that TLR agonists induce monocyte activation and enhance CD20 mAb-induced B cell depletion. […] Splenocytes were isolated from mice 18 h later and analyzed for FcγRII/III expression by immunofluorescence staining. For FIGS. 4A-B the results represent 2 independent experiments. […] B1b and B2 cells were distinguished based on their differential expression of CD11b. […] Representative peritoneal lymphocytes of CpG-treated MyD88^-/- or wild type mice following CD20 or control mAb (25 μg) treatment. Percentages (±SEM) represent mean B220^+ cell frequencies within the indicated gates 7 days after CD20 mAb treatment (≧3 mice per value) relative to control mAb-treated littermates (n=3). In FIG. 4C-E significant differences between sample means are indicated; *p<0.05, **p<0.01. Results represent 3-4 independent experiments. Immunofluorescence analysis. CD20 expression was visualized using biotin-conjugated mouse CD20 (MB20-11) mAb (Uchida et al., 2004b) plus phycoerythrin-Cy5 (PE-Cy5) streptavidin (eBioscience, San Diego, Calif.). Other mAbs included: B220 (RA3-6B2), CD1d (1B1), CD5 (53-7.3), CD19 (1D3), NK1.1 (PK136), and I-A/I-E (M5/114.15.2) from BD Biosciences (San Jose, Calif.). CD11b (M1/70), CD86 (GL1), F4/80 (BM8), IgM (II/41), Gr-1 (RB6-8C5), and IL-10 (JES5-16E3) mAbs were from eBioscience. TNF-α (MP6-XT22) mAb was from Biolegend (San Diego, Calif.). […]

[3] = tested on: purified spleen B cells; assay: B cell proliferation assay (CFSE); format: cell-based, mouse; settings: 25 μg/ml, 72 h
Procedure: Proliferation assay. Splenic B cells were purified using CD19 mAb-coated microbeads (Miltenyi) and labeled with CFSE Vybrant™ CFDA SE fluorescent dye (5 μM; Invitrogen). Labeled B cells were then cultured in medium with LPS, CpG, or poly I:C (25 μg/ml) for 72 h and assessed by flow cytometry.

[4] = tested on: mouse spleen B cells; assay: B10pro cell maturation in vitro (mouse); format: cell-based; settings: purified mouse spleen B cells, 48 h
Procedure: as §1

[5] = tested on: human blood mononuclear cells; assay: B10pro cell maturation in vitro (human); format: cell-based; settings: 48 h, CpG = human ODN 2006
Procedure: as §1

[6] = tested on: purified mouse spleen B cells; assay: Secreted IL-10 ELISA; format: cell-based; settings: 25 μg/ml, 72 h
Procedure: Cytokine ELISA. Secreted IL-10 was quantified by ELISA. Purified B cells (4×10^5) were cultured in 0.2 ml of complete medium with TLR agoninsts (25 μg/ml) in a 96-well flat-bottom tissue culture plates. Culture supernatant fluid IL-10 concentrations were quantified using IL-10 OptEIA ELISA kits (BD PharMingen) bfollowing the manufacturer's protocols. All assays were carried out using triplicate samples.

[7] = tested on: peritoneal B cells; assay: Peritoneal B cell depletion by CD20 mAb with TLR agonists; format: in vivo, mouse; settings: MyD88^−/− versus C57BL/6 mice
Text: Immunofluorescence analysis. CD20 expression was visualized using biotin-conjugated mouse CD20 (MB20-11) mAb (Uchida et al., 2004b) plus phycoerythrin-Cy5 (PE-Cy5) streptavidin (eBioscience, San Diego, Calif.). Other mAbs included: B220 (RA3-6B2), CD1d (1B1), CD5 (53-7.3), CD19 (1D3), NK1.1 (PK136), and I-A/I-E (M5/114.15.2) from BD Biosciences (San Jose, Calif.). CD11b (M1/70), CD86 (GL1), F4/80 (BM8), IgM (II/41), Gr-1 (RB6-8C5), and IL-10 (JES5-16E3) mAbs were from eBioscience. TNF-α (MP6-XT22) mAb was from Biolegend (San Diego, Calif.). For immunofluorescence analysis, single cell suspensions (10^6 cells) were stained at 4° C. using predetermined optimal concentrations of mAb for 30 minutes as described (Sato et al., 1996). CD20 immunotherapy and TLR agonist treatments. Sterile mouse anti-mouse CD20 mAb (MB20-11, IgG2c) and unreactive mouse control IgG2a mAb were as described ([…]-Colin et al., 2008). In some experiments, mice were treated with anti-NK1.1 mAb ([…]) on day -4 and day 3 for N K cell depletion. Macrophage deficiency was generated by tail vein injections of clodronate-encapsulated liposomes (Sigma-Aldrich) or control PBS-encapsulated liposomes (Van Rooijen and Sanders, 1994) 0.2 ml given on day -1 and 0.1 ml given on days 2, 5, and 9 (FIG. 3B) or 0.2 ml given on days -2, 1, and 4 (FIG. 3C). […]

[8] = compared with parent poly I:poly C; cited from earlier work
[9] = tested on: BL3750 lymphoma cells; assay: BL3750 lymphoma model; format: in vivo, mouse
Procedure: Lymphoma model. BL3750 lymphoma cells were as described (Minard-Colin et al., 2008). This lymphoma model is accepted by those skilled in the art as a standard model for human lymphoma disease. For each experiment, tumor cells were thawed and expanded for 24-48 hours in complete medium (RPMI 1640 media containing 20% fetal bovine serum, 100 U/ml penicillin, 100 μg/ml streptomycin, 2 mM L-glutamine, and 55 μM 2-mercaptoethanol). BL3750 cells in 250 μl PBS were injected subcutaneously into the dorsal skin of recipient mice on day 0. This mouse model of lymphoma is a standard animal model for human lymphoma used and accepted by those skilled in the art. Mice were then given purified mAb in 250 μl of PBS intravenously, and starting on day 7 were monitored daily for tumor development and progression, and survival. Tumor measurements were as described (Minard-Colin et al., 2008).
CD20 immunotherapy and TLR agonist treatments. […] In some experiments, mice were treated with anti-NK1.1 mAb (100 g) on day −4 and day 3 for N K cell depletion. Macrophage deficiency was generated by tail vein injections of clodronate-encapsulated liposomes (Sigma-Aldrich) or control PBS-encapsulated liposomes (Van Rooijen and Sanders, 1994) 0.2 ml given on day −1 and 0.1 ml given on days 2, 5, and 9 (FIG. 3B) or 0.2 ml given on days −2, 1, and 4 (FIG. 3C).

[10] = tested on: macrophages; assay: In vitro assay of antibody-dependent phagocytosis; format: cell-based, mouse
Procedure: In vitro assay of antibody-dependent phagocytosis. Spleen B cells were purified by MACS B cell isolation (Miltenyi Biotech), labeled with CFSE Vybrant™ CFDA SE fluorescent dye (5 μM; Invitrogen) and cultured over night in complete medium. CFSE-labeled B cells were incubated with CD20 mAb (MB20-11) on ice for 1 h, and washed with complete medium to remove unbound mAb. Macrophages were isolated from the peritoneal cavity of thioglycolate-treated mice by lavage. Peritineal macrophages were further purified by adherence to plastic before culture with or without poly I:C (25 μg/ml) in complete medium at 37° C. in a 5% CO2 atmosphere for 18 h. Macrophages and B cells were mixed at a 1:1 ratio and cultured for 2.5 h. The cell mixture was then stained with PE-conjugated CD11b mAb with the percentage of CFSE^+CD11b^+ (double-positive cells) analyzed by flow cytometry.

[11] = 10^5 BL3750 cells day 0, control mAb plus TLR agonist on days 1, 7, 14 and 21

| Substance | TNF-α production by monocytes [1] | FcγRII/III expression by innate effector cells [2] | B cell proliferation [3] | B10pro cell maturation into IL-10-competent B10 cells [4] | B10pro cell maturation into IL-10-competent B10 cells [5] | IL-10 secretion [6] | ability to enhance peritoneal B cell depletion by CD20 mAb [7] | toxicity [8] | reducing tumor growth in the mouse model ([9]; compared with Poly (I:C)) | effect on mouse survival [9, 11] | median survival [9, 11] | phagocytic capacity of macrophages ([10]; macrophages from TLR3^−/− or TRIF^−/− mice) | macrophage phagocytosis of CD20 mAb-coated B cells ([10]; wild type macrophages, poly I:C 25 μg/ml 18 h, 1:1, 2.5 h) |
| --- | --- | --- | --- | --- | --- | --- | --- | --- | --- | --- | --- | --- | --- |
| CpG: CpG ODN 1668 (5′tccATGACGTTCCTGAtgcT3′, bases in lower case are phosphorothioate); TLR9 agonist (DNA TCCATGACGTTCCTGATGCT; DNA, linkages s3 o13 s3 (s phosphorothioate, o phosphodiester), methylation of C not given here) | induced significant TNF-α production | higher levels of FcγRII/III expression | proliferated significantly | induced significant numbers of B10pro cells to mature | induced significant numbers of B10pro cells to mature | induced IL-10 secretion | significantly reduced by MyD88-deficiency | – | – | – | – | – | – |
| poly I:poly C12U [Ampligen] | – | – | – | – | – | – | – | lower toxicity | – | – | – | – | – |
| polyadenylic-polyuridylic acid [Poly (A:U)] | – | – | – | – | – | – | – | – | not as effective as Poly (I:C) | – | – | – | – |
| polyinosinic-polycytidylic acid [poly I:C] | induced significant TNF-α production | higher levels of FcγRII/III expression | did not proliferate | without effect | without effect | without effect | – | – | – | significant affect on mouse survival | 33 days | unable to augment | significantly enhanced |
